Drawing on paper PMC8857485, “Prostate secretory protein 94 inhibits sterol binding and export by the mammalian CAP protein CRISP2 in a calcium-sensitive manner” (The Journal of Biological Chemistry, 2022), this text covers Kd for one compound.

Structures are written as SMILES. Structures can show the parent of a compound that is named as a salt. Where two headings read alike, the source gives them in different places.

The target of one assay is T1, CRISP2^N97P Y99P (Homo sapiens, UniProt P16562, N97P/Y99P).
T1 construct: made in house; host or cells: E. coli
T1 sequence (P16562 22-243 N97P/Y99P): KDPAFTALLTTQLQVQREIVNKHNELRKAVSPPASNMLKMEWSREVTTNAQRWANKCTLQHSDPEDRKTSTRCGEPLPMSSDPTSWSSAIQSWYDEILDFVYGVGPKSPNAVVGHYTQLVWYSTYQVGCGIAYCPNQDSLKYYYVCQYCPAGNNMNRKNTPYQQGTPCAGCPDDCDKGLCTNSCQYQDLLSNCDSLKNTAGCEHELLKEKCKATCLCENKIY
The assay can be described thus: MST binding to CRISP2 double mutant N97P Y99P. Also noted: species or system mammalian. To be noted: absence of PSP94, read-out: Kd, sterol binding by CRISP2^N97P Y99P. As to the method: Next, we generated all three double mutant combinations of CRISP2: N97P L98G, N97P Y99P, and L98G Y99P. These three double mutant versions of CRISP2 were again expressed as His-tagged proteins in E. coli and purified, and their capacity to bind sterols in the presence or absence of PSP94 was assessed by MST. […] The capacity of the CRISP2^L98G Y99P double mutant to bind sterols even in the presence of PSP94 was confirmed by the in vivo sterol export assay (Fig. 6, A and B). When expressed in yeast cells, the CRISP2^L98G Y99P double mutant was stably expressed and secreted as monitored by Western blotting (Fig. 6C).
MST experiments were performed to assess protein–protein, protein–lipid, and protein–calcium interactions using a Monolith NT.115 (Nanotemper Technologies). Proteins were labeled using the RED-tris-NTA His tag protein labeling kit. Labeled CAP proteins, 100 nM, were mixed with a serial dilution of unlabeled PSP94, PSP9^F24G, cholesterol sulfate, or calcium chloride, prepared in binding buffer (20 mM Tris pH 7.5, 30 mM NaCl, 0.05% Triton X-100). Samples were loaded into MST standard capillaries, and MST measurements were performed using an 80% laser power setting. The dissociation constant Kd was obtained by plotting the normalized fluorescence (Fnorm) against the logarithm of ligand concentration. […]

The target of another assay is T2, CRISP2 L98G (Homo sapiens, UniProt P16562, L98G).
T2 construct: made in house; host or cells: E. coli
T2 sequence (P16562 22-243 L98G): as the sequence (P16562 22-243 N97P/Y99P) above, with P76N, L77G, P78Y counted along it
The assay can be described thus: MST binding to CRISP2 single mutant L98G. Also noted: species or system mammalian. The conditions noted are these: absence of PSP94, read-out: Kd, sterol binding by CRISP2 L98G. From the text: This interaction is thus located outside the hydrophobic loop that harbors the sterol-binding CBM. Based on these structural considerations, it is thus not apparent why and how the interaction between PSP94 and CRISP2 would block sterol binding at the CBM. To investigate this question in more detail, we first performed computational docking studies to identify residues in CRISP2 that are critical for the interaction with PSP94. […] Two of these three interacting residues, N97 and L98, are conserved in all three CAP family members tested here, CRISP2, CRISP3, and Pry1 (Fig. 4A). […]
(§1) MST experiments were performed to assess protein–protein, protein–lipid, and protein–calcium interactions using a Monolith NT.115 (Nanotemper Technologies). […] The dissociation constant Kd was obtained by plotting the normalized fluorescence (Fnorm) against the logarithm of ligand concentration. […]
Quadruple mutant cells lacking the acyl-CoA synthetases FAA1 and FAA4 and the yeast CAP family members PRY1 and PRY3 (faa1∆ faa4∆ pry1∆ pry3∆) expressing different combinations of plasmid-borne copies of PRY1, CRISP2, and or PSP94, or their respective empty vectors (pRS423 or pRS426) were cultivated overnight. The export of fatty acids into the culture medium was then quantified. […]

Assay [1] concerns the target T3, CAP domain of Pry1 (Pry1^CAP) (Saccharomyces cerevisiae, UniProt P47032).
T3 construct: made in house; host or cells: E. coli BL21
The assay can be described thus: MST binding to the CAP domain of Pry1.
From the text: To confirm the direct interaction of PSP94 with CRISP3 and to test whether PSP94 would also bind other CAP family members such as yeast Pry1, or CRISP2, we performed in vitro protein binding assay using microscale thermophoresis (MST). Therefore, PSP94 and the CAP family members, Pry1, CRISP2, and CRISP3, were expressed as fusion proteins with a C-terminal polyhistidine tag in Escherichia coli, and the proteins were affinity purified on nickel-NTA agarose beads. The purified CAP proteins were then fluorescently labeled using RED-tris-NTA and incubated with varying concentrations of PSP94. […] PSP94 thus has high binding affinity for all three CAP proteins tested, and it also binds the CAP domain of Pry1 (Pry1^CAP) alone.
DNA encoding proteins of interest were PCR amplified and cloned into NcoI and XhoI restriction sites of pET22b, which contains a PelB signal sequence to direct the secretion of expressed protein into the periplasmic space. […] Protein concentration was determined by Lowry assay using the Folin reagent and bovine serum albumin as protein standard.
as §1

T3 sequence (P47032 167-281 limits assumed): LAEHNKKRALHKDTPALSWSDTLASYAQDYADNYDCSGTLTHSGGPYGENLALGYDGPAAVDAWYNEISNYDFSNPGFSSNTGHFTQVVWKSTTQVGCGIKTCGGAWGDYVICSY

Consider `CC(C)CCC[C@@H](C)[C@H]1CC[C@H]2[C@@H]3CC=C4C[C@@H](OS(=O)(=O)O)CC[C@]4(C)[C@H]3CC[C@]12C` [cholesterol sulfate], for which the Kd at CRISP2^N97P Y99P amounted to 2.7 ± 2.3 µM; on CRISP2 L98G it was 95 ± 2.1 µM; in assay [1] (PSP94^F24G preincubated 5 min at 24 °C, read-out: Kd, sterol binding by Pry1^CAP in presence of PSP94^F24G), 4.14 ± 0.92 µM; in assay [1] (absence of PSP94, read-out: Kd, sterol binding by Pry1^CAP), 0.9 ± 1.9 µM.
